The values that follow are results of earlier work, collected in article PMC5459304 (International journal of toxicology, 2017).

The subject of the series is patients.

Regarding `CC1(C)C(/C=C/C=C/C=C/C=C2\N(CCCCS(=O)(=O)O)c3ccc4ccccc4c3C2(C)C)=[N+](CCCCS(=O)(=O)[O-])c2ccc3ccccc3c21` [ICG, indocyanine green], for the setting “1 severe reaction among 1226 patients”, the severe reaction rate is listed as 0.05%. In addition, under “1226 patients”, the number of reactions was 7 reactions out of 1923 ICG angiograms. The adverse reaction rate (1923 ICG angiograms in 1226 patients) is 0.3%. The “number of severe reactions” value (ICG angiograms from Japanese ophthalmologists) is listed as 2 severe reactions among 2820 patients.
